Laboratory results reported in PMC4707489, “A novel cell-penetrating peptide suppresses breast tumorigenesis by inhibiting β-catenin/LEF-1 signaling” (Scientific Reports, 2016).

What was measured:
[1] = system: β-catenin/TCF4/LEF-1 downstream genes; assay: Q-PCR of 27 candidate genes in MDA-MB-231; format: cell-based, human; details: MDA-MB-231, 100 μmol/l, 48 hr post-transfection, relative to TAT-NLS-BLBD-6m (Fig. 6e)
Method: Total RNA was isolated by Trizol reagent (Invitrogen, Carlsbad, CA, USA) and reverse transcribed to produce cDNA using the Deoxy + HiSpec reverse transcriptase kit (Yeastern, Taipei, Taiwan) according to the manufacturer instructions. Q-PCR was analyzed with SYBR Green Master Mix (Applied Biosystems, Stockholm, Sweden) and subjected to quantitation in an […]. The primers used for PCR are given in Supplementary Table S5 online. The Q-PCR data were normalized to 18S cDNA levels.

β-catenin = assay: Peptide-protein interaction by immunoprecipitation and PLA; format: binding, human
Method: Immunoprecipitation and western blotting were performed as described previously. MCF-7 and MDA-MB-231 cells were harvested in 4 °C phosphate-buffered saline and cell pellets were lysed with RIPA lysis buffer (Millipore, Bedford, MA, USA) for 30 min on ice. Cell lysis supernatant liquid was obtained by centrifugation at 10,000 × g for 10 min, incubated with protein-G beads (Roche, Indianapolis, IN) and anti-β-catenin, and subjected to western blotting. For the western blotting assay, cellular extract proteins were separated by SDS-polyacrylamide gel (SDS-PAGE) and transferred to nitrocellulose membrane (Millipore) using a dry transfer apparatus (Bio-Rad). […]
MCF-7 and MDA-MB-231 cells were cultured in 35-mm plates with cover slides on the plate bottom and treated with NLS-BLBD-6, TAT-BLBD-6 and TAT-NLS-BLBD-6 peptide for 24 hr. […] For the immunofluorescence assay, the slides were incubated with primary antibodies, anti-β-catenin (Epitomics) and anti-TAT (Santa Cruz), for 6 hr, and Alexa-488 fluorescence secondary antibodies for 1 hr. […] For the TUNEL assay, apoptosis was analyzed by the Apo-BrdU-red DNA Fragmentation Assay kit, according to the manufacturer’s protocol (BioVision, Mountain View, CA, USA). For the PLA, the protein–protein interaction assay was analyzed by Duolink® using PLA® Technology, according to the manufacturer’s protocol (Olink Bioscience, Uppsala, Sweden). […]

[2] = Body weight and toxicity in xenograft models; format: in vivo, mouse
Description: (§1) All animal experiments were approved by the Kaohsiung Medical University Institutional Animal Care and Use Committee (IACUC Approval No: 101156) and we accordance with the approved guidelines. Female nude mice (4–5 weeks old) were obtained from the National Laboratory Animal Center (Taipei, Taiwan). Xenograft tumor models were established by subcutaneous injection of 1 × 10^7 MCF-7-YFP or MDA-MB-231-GFP cells into the right flanks of mice. Mice with palpable tumors were randomly divided into three groups with five animals in each group. The mice were treated with control peptide, […], 1 and 10 mg/kg TAT-NLS-BLBD-6 by intratumoral injection once every 2 days for 35 days. The fluorescence density was analyzed by an In Vivo Imaging System (IVIS) (Berthold Technologies, Bad Wildbad, Germany), and the tumor volumes (V) of nude mice were calculated by: V = length × diameter^2 × 0.5. For zebrafish xenotransplantation, zebrafishes (Danio rerio) were maintained at 28 °C in an air incubator, and 1 × 10^4 MCF-7-GFP or MDA-MB-231-GFP cells combined with TAT-NLS-BLBD-6 or control peptide were injected into the zebrafish embryos according to the previously described protocol. The fluorescence density was measured 24 and 28 hr after injection using an epifluorescence microscope.

MDA-MB-231 cells [3] = assay: Cell growth (CCK-8); format: cell-based, human
Method: Cell growth was analyzed using 2-(2-methoxy-4-nitrophenyl)-3-(4-nitroph enyl)-5-(2,4-disulfophenyl)-2H-tetrazolium, monosodium salt, and the Cell Counting Kit-8 (CCK-8, Sigma). […] After culturing for another 48 hr, cell growth was analyzed by CCK-8 and the optical density was detected at 450 nm. The growth ratio was normalized to the cells without treatment.

MDA-MB-231 cells [4] = assay: TUNEL apoptosis assay; format: cell-based, human; details: MDA-MB-231, 100 μmol/l, vs control or TAT-NLS-BLBD-6m (Fig. 3b)
Method: MCF-7 and MDA-MB-231 cells were cultured in 35-mm plates with cover slides on the plate bottom and treated with NLS-BLBD-6, TAT-BLBD-6 and TAT-NLS-BLBD-6 peptide for 24 hr. Subsequently, cells were fixed with 4% paraformaldehyde and permeabilized with 0.2% Triton X-100 for 20 min at room temperature. For the immunofluorescence assay, the slides were incubated with primary antibodies, anti-β-catenin (Epitomics) and anti-TAT (Santa Cruz), for 6 hr, and Alexa-488 fluorescence secondary antibodies for 1 hr. DAPI (Sigma, St Louis, MO) was used to stain the nucleus for 1 min at room temperature. For the TUNEL assay, apoptosis was analyzed by the Apo-BrdU-red DNA Fragmentation Assay kit, according to the manufacturer’s protocol (BioVision, Mountain View, CA, USA). For the PLA, the protein–protein interaction assay was analyzed by Duolink® using PLA® Technology, according to the manufacturer’s protocol (Olink Bioscience, Uppsala, Sweden). Briefly, the slides were incubated with primary antibodies, anti-β-catenin (Epitomics) and anti-TAT (Santa Cruz), and secondary antibodies, Duolink PLA Rabbit MINUS and PLA Mouse PLUS proximity probes. Finally, the proximity ligation was performed by the Duolink detection reagent kit (Olink Bioscience). The immunofluorescence image and TUNEL staining was photographed by a microscope (IX-71, Olympus, Tokyo, Japan).

[5] = system: MDA-MB-231-GFP cells in zebrafish embryos; assay: Zebrafish xenotransplantation, fluorescence density; format: in vivo, Danio rerio; details: MDA-MB-231-GFP co-injected with 100 μmol/l peptide into yolk sacs, between 24 hr and 48 hr, n = 20 per group, vs TAT-NLS-BLBD-6m
Description: as §1, with “The fluorescence density was measured 24 and 28 hr after injection using an epifluorescence microscope.” left out

[6] = system: MCF-7-GFP cells in zebrafish embryos; assay: as above; format: in vivo, Danio rerio; details: MCF-7-GFP co-injected with 100 μmol/l peptide into yolk sacs, between 24 hr and 48 hr, n = 20 per group, vs TAT-NLS-BLBD-6m
Description: as §1, with “The fluorescence density was measured 24 and 28 hr after injection using an epifluorescence microscope.” left out

H-TAT-NLS-ATDEMIPF-NH2 [TAT-NLS-BLBD-6]
gene expression of the 27 candidate genes [1]: decreased | binding to β-catenin (β-catenin; MCF-7 cell nuclei, immunoprecipitation and PLA, 2 hr post-transfection (Fig. 2b,c)): bound to the β-catenin elements | binding to β-catenin (β-catenin; MDA-MB-231 cell nuclei, PLA, 100 μmol/l, 2 hr post-transfection (Fig. 2c)): bound to the β-catenin elements | body weight ([2]; nude mice, 1 and 10 mg/kg intratumoral once every 2 days for 35 days, vs control peptide): without having any effect on body weight | signs of toxicity ([2]; nude mouse and zebrafish xenotransplantation models): no signs of toxicity | cell growth (MDA-MB-231 cells [3]; 75 μmol/l peptide, MDA-MB-231, CCK-8, means of three experiments (Fig. 1b)): inhibited the growth | time and dose dependence of cell growth (MDA-MB-231 cells [3]; MDA-MB-231, indicated concentrations, 24, 48 and 72 hr (Fig. 1c,d)): inhibited breast cancer cell growth in a time- and dose-dependent manner | apoptosis (TUNEL, BrdU binding and DNA fragmentation) (MDA-MB-231 cells [4]): increased the effect of binding with BrdU and DNA fragmentation | fluorescence density of transplanted tumor cells [5]: gradually reduced | fluorescence density of transplanted tumor cells [6]: gradually reduced
